Laboratory results reported in ChEMBL document CHEMBL3885881, “DrugMatrix”.

Species: Rattus norvegicus
Test: DrugMatrix - Regimen: Daily Repeat
Type: toxicity, organism-based, Sprague-Dawley
Parameters: regimen Daily Repeat, gender Male, age 6-8 weeks
Settings: in vivo, po, […], route oral GAVAGE, dose 1.2 mg/Kg, dose level Low; for ABSOLUTE BASOPHIL / ABSOLUTE EOSINOPHIL / ABSOLUTE LYMPHOCYTE / ABSOLUTE MONOCYTE / ABSOLUTE SEGMENTED NEUTROPHIL / BASOPHIL / EOSINOPHIL / ERYTHROCYTE COUNT / HEMATOCRIT / HEMOGLOBIN / LEUKOCYTE COUNT / LYMPHOCYTE / MEAN CORPUSCULAR HEMOGLOBIN / MEAN CORPUSCULAR HEMOGLOBIN CONCENTRATION / MEAN CORPUSCULAR VOLUME / MONOCYTE / NEUTROPHIL / NUCLEATED RED BLOOD CELLS / PLATELET COUNT: tissue Blood; for ALANINE AMINOTRANSFERASE / ALBUMIN / ALKALINE PHOSPHATASE / ASPARTATE AMINOTRANSFERASE / BLOOD UREA NITROGEN / CARBON DIOXIDE / CHLORIDE / CHOLESTEROL / CREATINE PHOSPHOKINASE / CREATININE / GLUCOSE / LACTATE DEHYDROGENASE / LIPASE / PHOSPHORUS / POTASSIUM / SODIUM / TOTAL BILIRUBIN / TOTAL PROTEIN / URIC ACID: tissue Plasma

SMILES: CNC(=C[N+](=O)[O-])NCCSCc1csc(CN(C)C)n1 [NIZATIDINE]
- ABSOLUTE BASOPHIL (72 h, time 3 day): 0 CELLS/uL
- ABSOLUTE EOSINOPHIL (72 h, time 3 day): 34 CELLS/uL
- ABSOLUTE LYMPHOCYTE (72 h, time 3 day): 10569 CELLS/uL
- ABSOLUTE MONOCYTE (72 h, time 3 day): 72 CELLS/uL
- ABSOLUTE SEGMENTED NEUTROPHIL (72 h, time 3 day): 2425 CELLS/uL
- BASOPHIL (72 h, time 3 day): 0%
- EOSINOPHIL (72 h, time 3 day): 0.33%
- ERYTHROCYTE COUNT (72 h, time 3 day): 5.9 x10E6/uL
- HEMATOCRIT (72 h, time 3 day): 35.07%
- HEMOGLOBIN (72 h, time 3 day): 13.63 G/DL
- LEUKOCYTE COUNT (72 h, time 3 day): 13.1 x10E3/uL
- LYMPHOCYTE (72 h, time 3 day): 80.33%
- MEAN CORPUSCULAR HEMOGLOBIN (72 h, time 3 day): 23.13 pg
- MEAN CORPUSCULAR HEMOGLOBIN CONCENTRATION (72 h, time 3 day): 38.87 G/DL
- MEAN CORPUSCULAR VOLUME (72 h, time 3 day): 59.5 fL
- MONOCYTE (72 h, time 3 day): 0.67%
- NEUTROPHIL (72 h, time 3 day): 18.67%
- NUCLEATED RED BLOOD CELLS (72 h, time 3 day): 0.67 /100WBC
- PLATELET COUNT (72 h, time 3 day): 1288.67 x10E3/uL
- ALANINE AMINOTRANSFERASE (72 h, time 3 day): 58.33 u/L
- ALBUMIN (72 h, time 3 day): 4.07 G/DL
- ALKALINE PHOSPHATASE (72 h, time 3 day): 348.67 u/L
- ASPARTATE AMINOTRANSFERASE (72 h, time 3 day): 87.67 u/L
- BLOOD UREA NITROGEN (72 h, time 3 day): 12.67 mg/dL
- CARBON DIOXIDE (72 h, time 3 day): 26 mmol/L
- CHLORIDE (72 h, time 3 day): 101 MEQ/L
- CHOLESTEROL (72 h, time 3 day): 72.67 mg/dL
- CREATINE PHOSPHOKINASE (72 h, time 3 day): 343.33 u/L
- CREATININE (72 h, time 3 day): 0.16 mg/dL
- GLUCOSE (72 h, time 3 day): 162.67 mg/dL
- LACTATE DEHYDROGENASE (72 h, time 3 day): 208 u/L
- LIPASE (72 h, time 3 day): 10 u/L
- PHOSPHORUS (72 h, time 3 day): 13.27 mg/dL
- POTASSIUM (72 h, time 3 day): 7.68 MEQ/L
- SODIUM (72 h, time 3 day): 143.37 MEQ/L
- TOTAL BILIRUBIN (72 h, time 3 day): 0.2 mg/dL
- TOTAL PROTEIN (72 h, time 3 day): 5.6 G/DL
- URIC ACID (72 h, time 3 day): 2 mg/dL
- ABSOLUTE BASOPHIL (120 h, time 5 day): 0 CELLS/uL
- ABSOLUTE EOSINOPHIL (120 h, time 5 day): 0 CELLS/uL
- ABSOLUTE LYMPHOCYTE (120 h, time 5 day): 14620.33 CELLS/uL
- ABSOLUTE MONOCYTE (120 h, time 5 day): 0 CELLS/uL
- ABSOLUTE SEGMENTED NEUTROPHIL (120 h, time 5 day): 2246.33 CELLS/uL
- BASOPHIL (120 h, time 5 day): 0%
- EOSINOPHIL (120 h, time 5 day): 0%
- ERYTHROCYTE COUNT (120 h, time 5 day): 5.78 x10E6/uL
- HEMATOCRIT (120 h, time 5 day): 35.77%
- HEMOGLOBIN (120 h, time 5 day): 14.27 G/DL
- LEUKOCYTE COUNT (120 h, time 5 day): 16.87 x10E3/uL
- LYMPHOCYTE (120 h, time 5 day): 87%
- MEAN CORPUSCULAR HEMOGLOBIN (120 h, time 5 day): 24.63 pg
- MEAN CORPUSCULAR HEMOGLOBIN CONCENTRATION (120 h, time 5 day): 39.9 G/DL
- MEAN CORPUSCULAR VOLUME (120 h, time 5 day): 61.87 fL
- MONOCYTE (120 h, time 5 day): 0%
- NEUTROPHIL (120 h, time 5 day): 13%
- NUCLEATED RED BLOOD CELLS (120 h, time 5 day): 0 /100WBC
- PLATELET COUNT (120 h, time 5 day): 1147.67 x10E3/uL
- ALANINE AMINOTRANSFERASE (120 h, time 5 day): 54.33 u/L
- ALBUMIN (120 h, time 5 day): 4.27 G/DL
- ALKALINE PHOSPHATASE (120 h, time 5 day): 454.67 u/L
- ASPARTATE AMINOTRANSFERASE (120 h, time 5 day): 86.67 u/L
- BLOOD UREA NITROGEN (120 h, time 5 day): 11.67 mg/dL
- CARBON DIOXIDE (120 h, time 5 day): 27 mmol/L
- CHLORIDE (120 h, time 5 day): 101.33 MEQ/L
- CHOLESTEROL (120 h, time 5 day): 63.33 mg/dL
- CREATINE PHOSPHOKINASE (120 h, time 5 day): 239.33 u/L
- CREATININE (120 h, time 5 day): 0.2 mg/dL
- GLUCOSE (120 h, time 5 day): 154 mg/dL
- LACTATE DEHYDROGENASE (120 h, time 5 day): 176.67 u/L
- LIPASE (120 h, time 5 day): 10 u/L
- PHOSPHORUS (120 h, time 5 day): 11.33 mg/dL
- POTASSIUM (120 h, time 5 day): 6.56 MEQ/L
- SODIUM (120 h, time 5 day): 143.2 MEQ/L
- TOTAL BILIRUBIN (120 h, time 5 day): 0.17 mg/dL
- TOTAL PROTEIN (120 h, time 5 day): 5.87 G/DL
- URIC ACID (120 h, time 5 day): 1.7 mg/dL
